Laboratory results reported in patent US10517889B2, “Modulators of SMAD7 expression” (Ionis Pharmaceuticals, Inc., priority 2017, dated 2019).
Strand notation (5' to 3'): a small letter for the sugar, then the base; units joined by * are phosphorothioate-linked, units joined directly phosphodiester-linked; [ ] holds rarer units or linkages, { } end groups; capitals alone tell only the bases. e = 2'-O-(2-methoxyethyl) (MOE); [5mC] = 5-methylcytosine; d = 2'-deoxy (DNA)

Tested on: human SMAD7 mRNA
Test: Antisense inhibition of human SMAD7 mRNA expression in Hep3B cells by 5-10-5 MOE gapmers, single concentration, electroporation, RT-PCR (Example 1, Study 1 and 2)
Assay type: cell-based
Conditions: for % Inhibition of SMAD7 mRNA: electroporation with 15,000 nM antisense oligonucleotide (Study 2)
In short: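 Readout is percent SMAD7 mRNA inhibition versus untreated cells, measured by qRT-PCR (RTS5062) and corrected for total RNA by RIBOGREEN. Oligonucleotide, 5,000 nM or 15,000 nM, was delivered by electroporation into Hep3B cells at 20,000 per well. RNA was collected about 24 h later.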

[1] = electroporation, 15,000 nM antisense oligonucleotide (Study 2), 5-10-5 MOE gapmers targeting SEQ ID NO: 1 and 2
[2] = Study 2, electroporation with 15,000 nM antisense oligonucleotide, 5-10-5 MOE gapmers targeting SEQ ID NO: 1 and 2
[3] = electroporation, 15,000 nM, approximately 24 hours, relative to untreated control cells, gapmers targeting SEQ ID NO: 1 and 2
[4] = 5-10-5 MOE gapmers targeting SEQ ID NO: 1 and 2

## 771498 (antisense e[5mC]*eT*eG*eT*eT*dG*dA*dA*dG*dA*dT*dG*dA*d[5mC]*d[5mC]*eT*e[5mC]*eT*eA*eG) [compound 771498]
[1]
  % inhibition of SMAD7 mRNA expression: 48%

## 771499 (antisense eG*e[5mC]*eT*eA*e[5mC]*d[5mC]*dG*dG*d[5mC]*dT*dG*dT*dT*dG*dA*eA*eG*eA*eT*eG) [compound 771499]
[1]
  % inhibition of SMAD7 mRNA expression: 1%

## 771501 (antisense eG*e[5mC]*eA*e[5mC]*eG*d[5mC]*dG*dG*d[5mC]*dT*dA*d[5mC]*d[5mC]*dG*dG*e[5mC]*eT*eG*eT*eT) [compound 771501]
[2]
  % inhibition of SMAD7 mRNA expression: 16%

## 771502 (antisense e[5mC]*eG*e[5mC]*eT*e[5mC]*dT*dG*dT*d[5mC]*d[5mC]*d[5mC]*d[5mC]*dT*d[5mC]*d[5mC]*eG*e[5mC]*eA*e[5mC]*eG) [compound 771502]
[3]
  % inhibition of SMAD7 mRNA expression: 48%

## 771503 (antisense eG*e[5mC]*eT*e[5mC]*eA*d[5mC]*dG*d[5mC]*dT*d[5mC]*dT*dG*dT*d[5mC]*d[5mC]*e[5mC]*e[5mC]*eT*e[5mC]*e[5mC]) [compound 771503]
[2]
  % inhibition of SMAD7 mRNA expression: 27%

## 771504 (antisense e[5mC]*eA*eG*e[5mC]*eT*d[5mC]*dA*d[5mC]*dG*d[5mC]*dT*d[5mC]*dT*dG*dT*e[5mC]*e[5mC]*e[5mC]*e[5mC]*eT) [compound 771504]
[2]
  % inhibition of SMAD7 mRNA expression: 48%

## 771505 (antisense e[5mC]*eT*e[5mC]*eA*eG*d[5mC]*dT*d[5mC]*dA*d[5mC]*dG*d[5mC]*dT*d[5mC]*dT*eG*eT*e[5mC]*e[5mC]*e[5mC]) [compound 771505]
[4]
  % Inhibition of SMAD7 mRNA: 29%
[1]
  % inhibition of SMAD7 mRNA expression: 0%

## 771508 (antisense e[5mC]*e[5mC]*eT*eG*e[5mC]*dT*d[5mC]*dA*dG*d[5mC]*dT*d[5mC]*dA*d[5mC]*dG*e[5mC]*eT*e[5mC]*eT*eG) [compound 771508]
[2]
  % inhibition of SMAD7 mRNA expression: 8%

## 771510 (antisense eA*eG*eT*eG*eT*dG*dG*d[5mC]*d[5mC]*dT*dG*d[5mC]*dT*d[5mC]*dA*eG*e[5mC]*eT*e[5mC]*eA) [compound 771510]
[2]
  % inhibition of SMAD7 mRNA expression: 35%

## 771511 (antisense eT*eT*eT*eG*eA*dA*dG*dT*dG*dT*dG*dG*d[5mC]*d[5mC]*dT*eG*e[5mC]*eT*e[5mC]*eA) [compound 771511]
[2]
  % inhibition of SMAD7 mRNA expression: 31%

## 771512 (antisense eA*eG*eT*eA*eG*dT*dT*dT*dG*dA*dA*dG*dT*dG*dT*eG*eG*e[5mC]*e[5mC]*eT) [compound 771512]
[4]
  % Inhibition of SMAD7 mRNA: 34%
[1]
  % inhibition of SMAD7 mRNA expression: 0%

## 771513 (antisense eA*eG*e[5mC]*eA*eA*dA*dG*dT*dA*dG*dT*dT*dT*dG*dA*eA*eG*eT*eG*eT) [compound 771513]
[1]
  % inhibition of SMAD7 mRNA expression: 34%

## 771514 (antisense eT*eT*eA*eG*e[5mC]*dA*dG*d[5mC]*dA*dA*dA*dG*dT*dA*dG*eT*eT*eT*eG*eA) [compound 771514]
[1]
  % inhibition of SMAD7 mRNA expression: 19%

## 771516 (antisense eG*eA*eG*eG*eA*dA*dA*dA*dT*dA*dT*dT*dA*dG*d[5mC]*eA*eG*e[5mC]*eA*eA) [compound 771516]
[2]
  % inhibition of SMAD7 mRNA expression: 8%

## 771517 (antisense e[5mC]*eT*e[5mC]*eA*eG*dG*dA*dG*dG*dA*dA*dA*dA*dT*dA*eT*eT*eA*eG*e[5mC]) [compound 771517]
[3]
  % inhibition of SMAD7 mRNA expression: 25%

## 771518 (antisense eA*eA*eG*e[5mC]*eA*d[5mC]*dT*d[5mC]*dA*dG*dG*dA*dG*dG*dA*eA*eA*eA*eT*eA) [compound 771518]
[2]
  % inhibition of SMAD7 mRNA expression: 4%

## 771519 (antisense eA*eA*eA*eG*e[5mC]*dA*dA*dG*d[5mC]*dA*d[5mC]*dT*d[5mC]*dA*dG*eG*eA*eG*eG*eA) [compound 771519]
[2]
  % inhibition of SMAD7 mRNA expression: 25%

## 771520 (antisense eA*eT*eG*eA*eA*dA*dA*dG*d[5mC]*dA*dA*dG*d[5mC]*dA*d[5mC]*eT*e[5mC]*eA*eG*eG) [compound 771520]
[4]
  % Inhibition of SMAD7 mRNA: 37%
[1]
  % inhibition of SMAD7 mRNA expression: 12%

## 771521 (antisense e[5mC]*eA*eT*eG*eA*dA*dA*dA*dG*d[5mC]*dA*dA*dG*d[5mC]*dA*e[5mC]*eT*e[5mC]*eA*eG) [compound 771521]
[1]
  % inhibition of SMAD7 mRNA expression: 33%

## 771522 (antisense eG*e[5mC]*eA*eT*eG*dA*dA*dA*dA*dG*d[5mC]*dA*dA*dG*d[5mC]*eA*e[5mC]*eT*e[5mC]*eA) [compound 771522]
[1]
  % inhibition of SMAD7 mRNA expression: 29%

## 771524 (antisense eT*eT*eG*e[5mC]*eA*dT*dG*dA*dA*dA*dA*dG*d[5mC]*dA*dA*eG*e[5mC]*eA*e[5mC]*eT) [compound 771524]
[2]
  % inhibition of SMAD7 mRNA expression: 19%

## 771525 (antisense eT*eT*eT*eG*e[5mC]*dA*dT*dG*dA*dA*dA*dA*dG*d[5mC]*dA*eA*eG*e[5mC]*eA*e[5mC]) [compound 771525]
[3]
  % inhibition of SMAD7 mRNA expression: 28%

## 771526 (antisense eG*eT*eT*eT*eG*d[5mC]*dA*dT*dG*dA*dA*dA*dA*dG*d[5mC]*eA*eA*eG*e[5mC]*eA) [compound 771526]
[2]
  % inhibition of SMAD7 mRNA expression: 26%

## 771527 (antisense eG*eA*eG*eT*eT*dT*dG*d[5mC]*dA*dT*dG*dA*dA*dA*dA*eG*e[5mC]*eA*eA*eG) [compound 771527]
[2]
  % inhibition of SMAD7 mRNA expression: 0%

## 771528 (antisense eA*eA*eA*eG*eA*dG*dT*dT*dT*dG*d[5mC]*dA*dT*dG*dA*eA*eA*eA*eG*e[5mC]) [compound 771528]
[4]
  % Inhibition of SMAD7 mRNA: 12%
[1]
  % inhibition of SMAD7 mRNA expression: 4%

## 771529 (antisense e[5mC]*eG*eA*e[5mC]*e[5mC]*dA*dA*dA*dG*dA*dG*dT*dT*dT*dG*e[5mC]*eA*eT*eG*eA) [compound 771529]
[1]
  % inhibition of SMAD7 mRNA expression: 0%

## 771530 (antisense eA*eA*eA*eA*eA*d[5mC]*dG*dA*d[5mC]*d[5mC]*dA*dA*dA*dG*dA*eG*eT*eT*eT*eG) [compound 771530]
[1]
  % inhibition of SMAD7 mRNA expression: 16%

## 771532 (antisense eA*eG*eA*eA*eG*dA*dA*dA*dA*d[5mC]*d[5mC]*dA*dA*d[5mC]*d[5mC]*eA*eA*e[5mC]*eA*eA) [compound 771532]
[2]
  % inhibition of SMAD7 mRNA expression: 0%

## 771533 (antisense e[5mC]*eA*eA*eA*e[5mC]*dG*dA*dG*dG*dA*d[5mC]*dG*dA*dG*dA*eA*eG*eA*eA*eG) [compound 771533]
[3]
  % inhibition of SMAD7 mRNA expression: 2%

## 771534 (antisense eA*eA*e[5mC]*eA*eG*dA*dA*d[5mC]*dA*d[5mC]*dA*dA*dA*d[5mC]*dG*eA*eG*eG*eA*e[5mC]) [compound 771534]
[2]
  % inhibition of SMAD7 mRNA expression: 0%

## 771535 (antisense eA*eA*e[5mC]*eA*eA*dA*dA*d[5mC]*dA*dG*dA*dA*d[5mC]*dA*d[5mC]*eA*eA*eA*e[5mC]*eG) [compound 771535]
[2]
  % inhibition of SMAD7 mRNA expression: 17%

## 771536 (antisense eA*eG*e[5mC]*eG*eA*dA*dA*d[5mC]*dA*dA*dA*dA*d[5mC]*dA*dG*eA*eA*e[5mC]*eA*e[5mC]) [compound 771536]
[4]
  % Inhibition of SMAD7 mRNA: 25%
[1]
  % inhibition of SMAD7 mRNA expression: 0%

## 771537 (antisense e[5mC]*eA*eA*eA*eG*dA*dG*d[5mC]*dG*dA*dA*dA*d[5mC]*dA*dA*eA*eA*e[5mC]*eA*eG) [compound 771537]
[1]
  % inhibition of SMAD7 mRNA expression: 16%

## 771538 (antisense eT*eT*eT*e[5mC]*eT*d[5mC]*dA*dA*dA*dG*dA*dG*d[5mC]*dG*dA*eA*eA*e[5mC]*eA*eA) [compound 771538]
[1]
  % inhibition of SMAD7 mRNA expression: 24%

## 771540 (antisense eT*e[5mC]*eA*eT*eA*dA*dG*d[5mC]*dT*dA*dT*dT*dT*d[5mC]*dT*e[5mC]*eA*eA*eA*eG) [compound 771540]
[2]
  % inhibition of SMAD7 mRNA expression: 0%

## 771541 (antisense eT*e[5mC]*eT*eT*eT*dT*d[5mC]*dA*dT*dA*dA*dG*d[5mC]*dT*dA*eT*eT*eT*e[5mC]*eT) [compound 771541]
[3]
  % inhibition of SMAD7 mRNA expression: 35%

## 771542 (antisense eA*e[5mC]*eA*eA*eT*dT*d[5mC]*dT*dT*dT*dT*d[5mC]*dA*dT*dA*eA*eG*e[5mC]*eT*eA) [compound 771542]
[2]
  % inhibition of SMAD7 mRNA expression: 0%

## 771543 (antisense e[5mC]*e[5mC]*e[5mC]*e[5mC]*eA*dA*d[5mC]*dA*dA*dT*dT*d[5mC]*dT*dT*dT*eT*e[5mC]*eA*eT*eA) [compound 771543]
[2]
  % inhibition of SMAD7 mRNA expression: 36%

## 771544 (antisense eA*eA*eA*eA*e[5mC]*d[5mC]*d[5mC]*d[5mC]*d[5mC]*dA*dA*d[5mC]*dA*dA*dT*eT*e[5mC]*eT*eT*eT) [compound 771544]
[4]
  % Inhibition of SMAD7 mRNA: 16%
[1]
  % inhibition of SMAD7 mRNA expression: 0%

## 771545 (antisense e[5mC]*e[5mC]*eA*eA*eA*dA*dA*dA*dA*d[5mC]*d[5mC]*d[5mC]*d[5mC]*d[5mC]*dA*eA*e[5mC]*eA*eA*eT) [compound 771545]
[1]
  % inhibition of SMAD7 mRNA expression: 21%

## 771546 (antisense eT*eA*e[5mC]*e[5mC]*eT*dG*d[5mC]*d[5mC]*d[5mC]*d[5mC]*dT*dT*d[5mC]*dT*dT*e[5mC]*e[5mC]*eA*eA*eA) [compound 771546]
[1]
  % inhibition of SMAD7 mRNA expression: 26%

## 771548 (antisense eG*eG*eT*eG*eT*d[5mC]*d[5mC]*dT*dG*d[5mC]*d[5mC]*dG*dA*dT*d[5mC]*eA*eT*eA*e[5mC]*e[5mC]) [compound 771548]
[2]
  % inhibition of SMAD7 mRNA expression: 19%

## 771549 (antisense e[5mC]*e[5mC]*eT*e[5mC]*eT*dT*d[5mC]*d[5mC]*dT*dA*dT*d[5mC]*dA*dG*dG*eG*eT*eG*eT*e[5mC]) [compound 771549]
[3]
  % inhibition of SMAD7 mRNA expression: 49%

## 771550 (antisense eT*eG*e[5mC]*eT*eT*d[5mC]*d[5mC]*d[5mC]*d[5mC]*dT*d[5mC]*dT*dT*d[5mC]*d[5mC]*eT*eA*eT*e[5mC]*eA) [compound 771550]
[2]
  % inhibition of SMAD7 mRNA expression: 4%
